Measured values reported in patent US20150291598A1 (NOVARTIS AG, priority 2012, published 2015).

Tested on: P. falciparum (NF54 or 3D7 strain)
Test: Assay for P. falciparum proliferation in infected human blood cells (SYBR Green)
Assay type: cell-based, Plasmodium falciparum
Settings: Plasmodium falciparum, Erythrocyte, 72 h, NF54 or 3D7 infected human erythrocytes, 72 hours; read-out: EC50 (nM), inhibitory efficacy in delaying P. falciparum proliferation in infected human blood cells
In short: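 Infected erythrocytes (NF54 or 3D7; final 2.5% hematocrit, 0.3% parasitemia) were incubated with compounds for 72 h at 37 °C in low oxygen (3% O2, 4% CO2, 93% N2).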

Question: With `Cc1cc(C)n(-c2ccc(-c3cnc4cnc(C(=O)N(C)c5ccc(C#N)cc5)cn34)cc2)n1` [Compound 160, N-(4-cyanophenyl)-3-[4-(3,5-dimethyl-1H-pyrazol-1-yl)phenyl]-N-methylimidazo[1,2-a]pyrazine-6-carboxamide] as the molecule, how does the EC50 read?
Answer: Its EC50 is 1750 nM.

Question: How did the EC50 turn out when `CN(C(=O)c1cn2c(-c3ccc(C(N)=O)cc3)cnc2cn1)c1ccc(Cl)nc1` [Compound 161, 3-(4-carbamoylphenyl)-N-(6-chloropyridin-3-yl)-N-methylimidazo[1,2-a]pyrazine-6-carboxamide] was run?
Answer: Its EC50 is 1470 nM.

Question: `CC(C)Oc1ccc(-c2cnc3cnc(C(=O)N(C)c4ccc(C#N)cc4)cn23)cc1` [Compound 162, N-(4-cyanophenyl)-N-methyl-3-[4-(propan-2-yloxy)phenyl]imidazo[1,2-a]pyrazine-6-carboxamide] was tested. Which EC50 did it give?
Answer: Its EC50 is 318 nM.

Question: `Cc1nnc(-c2ccc(-c3cnc4cnc(C(=O)N(C)c5ccc(C#N)cc5)cn34)cc2)o1` [Compound 163, N-(4-cyanophenyl)-N-methyl-3-[4-(5-methyl-1,3,4-oxadiazol-2-yl)phenyl]imidazo[1,2-a]pyrazine-6-carboxamide] was tested. Which EC50 did it give?
Answer: The EC50 was 2630 nM.

Question: For `CN(C)c1ccc(-c2cnc3cnc(C(=O)N(C)c4ccc(S(C)(=O)=O)cc4)cn23)cc1` [Compound 164, 3-[4-(dimethylamino)phenyl]-N-(4-methanesulfonylphenyl)-N-methylimidazo[1,2-a]pyrazine-6-carboxamide], which EC50 is on record?
Answer: Its EC50 is 961 nM.

Question: Which EC50 does the source give for `CN(C(=O)c1cn2c(-c3ccc(C4NC(=O)NC4=O)cc3)cnc2cn1)c1ccc(C#N)cc1` (stereo not drawn) [Compound 165, N-(4-cyanophenyl)-3-[4-(2,5-dioxoimidazolidin-4-yl)phenyl]-N-methylimidazo[1,2-a]pyrazine-6-carboxamide] here?
Answer: The EC50 was 4610 nM.

Question: For `COC(=O)c1ccc(-c2cnc3cnc(C(=O)N(C)c4ccc(C#N)cc4)cn23)cc1` [Compound 166, methyl 4-{6-[(4-cyanophenyl)(methyl)carbamoyl]imidazo[1,2-a]pyrazin-3-yl}benzoate], which EC50 is on record?
Answer: Its EC50 is 206 nM.

Question: `CN(C(=O)c1cn2c(-c3ccc4cnccc4c3)cnc2cn1)c1ccc(C#N)cc1` [Compound 167, N-(4-cyanophenyl)-3-(isoquinolin-6-yl)-N-methylimidazo[1,2-a]pyrazine-6-carboxamide] was tested. Which EC50 did it give?
Answer: Its EC50 is 4870 nM.

Question: With `CN(C(=O)c1cn2c(-c3ccc4c(=O)[nH]ccc4c3)cnc2cn1)c1ccc(C#N)cc1` [Compound 168, N-(4-cyanophenyl)-N-methyl-3-(1-oxo-1,2-dihydroisoquinolin-6-yl)imidazo[1,2-a]pyrazine-6-carboxamide] as the molecule, how does the EC50 read?
Answer: Its EC50 is 558 nM.

Question: `CN(C(=O)c1cn2c(-c3ccc(C(F)(F)F)c(F)c3)cnc2cn1)c1ccc(C#N)cc1` [Compound 169, N-(4-cyanophenyl)-3-[3-fluoro-4-(trifluoromethyl)phenyl]-N-methylimidazo[1,2-a]pyrazine-6-carbox] was tested. Which EC50 did it give?
Answer: Its EC50 is 497 nM.

Question: `CCCOc1ccc(-c2cnc3cnc(C(=O)N(C)c4ccc(C#N)cc4)cn23)cn1` [Compound 170, N-(4-cyanophenyl)-N-methyl-3-(6-propoxypyridin-3-yl)imidazo[1,2-a]pyrazine-6-carboxamide] was tested. Which EC50 did it give?
Answer: Its EC50 is 4070 nM.

Question: `CN(C(=O)c1cn2c(-c3ccc(C(F)(F)F)cc3)cnc2cn1)c1ccccc1C(F)(F)F` [Compound 171, N-methyl-N-[2-(trifluoromethyl)phenyl]-3-[4-(trifluoromethyl)phenyl]imidazo[1,2-a]pyrazine-6-carboxamide] was tested. Which EC50 did it give?
Answer: The EC50 was 4010 nM.

Question: With `CN(C(=O)c1cn2c(-c3ccc(C(N)=O)cc3)cnc2cn1)c1ccc(S(C)(=O)=O)cc1` [Compound 172, 3-(4-carbamoylphenyl)-N-(4-methanesulfonylphenyl)-N-methylimidazo[1,2-a]pyrazine-6-carboxamide] as the molecule, how does the EC50 read?
Answer: The EC50 was 1130 nM.

Question: With `CN(C(=O)c1cn2c(-c3ccc(C(F)(F)F)cc3)cnc2cn1)c1ccc(OC(F)(F)F)cc1` [Compound 173, N-methyl-N-[4-(trifluoromethoxy)phenyl]-3-[4-(trifluoromethyl)phenyl]imidazo[1,2-a]pyrazine-6-carboxamide] as the molecule, how does the EC50 read?
Answer: Its EC50 is 4250 nM.

Question: `CN(C(=O)c1cn2c(-c3ccc(C(F)(F)F)cc3)cnc2cn1)c1nccn1C` [Compound 174, N-methyl-N-(1-methyl-1H-imidazol-2-yl)-3-[4-(trifluoromethyl)phenyl]imidazo[1,2-a]pyrazine-6-carboxamide] was tested. Which EC50 did it give?
Answer: The EC50 was 4750 nM.

Question: How did the EC50 turn out when `CN(C(=O)c1cn2c(-c3cccc(C(F)(F)F)c3)cnc2cn1)c1ccc(C#N)cc1` [Compound 175, N-(4-cyanophenyl)-N-methyl-3-[3-(trifluoromethyl)phenyl]imidazo[1,2-a]pyrazine-6-carboxamide] was run?
Answer: The EC50 was 3280 nM.

Question: For `O=C(c1cn2c(-c3ccc(C(F)(F)F)cc3)cnc2cn1)N1CCc2cc(F)ccc21` [Compound 176, 5-fluoro-1-({3-[4-(trifluoromethyl)phenyl]imidazo[1,2-a]pyrazin-6-yl}carbonyl)-2,3-dihydro-1H-indole], which EC50 is on record?
Answer: The EC50 was greater than 10000 nM.

Question: `CN(C(=O)c1cn2c(-c3ccc(Oc4ccccc4)cc3)cnc2cn1)c1ccc(C#N)cc1` [Compound 177, N-(4-cyanophenyl)-N-methyl-3-(4-phenoxyphenyl)imidazo[1,2-a]pyrazine-6-carboxamide] was tested. Which EC50 did it give?
Answer: Its EC50 is 6750 nM.

Question: With `CN(C(=O)c1cn2c(-c3cnn(Cc4ccccc4)c3)cnc2cn1)c1ccc(C#N)cc1` [Compound 178, 3-(1-benzyl-1H-pyrazol-4-yl)-N-(4-cyanophenyl)-N-methylimidazo[1,2-a]pyrazine-6-carboxamide] as the molecule, how does the EC50 read?
Answer: The EC50 was 6510 nM.

Question: Which EC50 does the source give for `CN(C(=O)c1cn2c(-c3ccc(Cl)cc3C(F)(F)F)cnc2cn1)c1ccc(C#N)cc1` [Compound 179, 3-[4-chloro-2-(trifluoromethyl)phenyl]-N-(4-cyanophenyl)-N-methylimidazo[1,2-a]pyrazine-6-carboxamide] here?
Answer: Its EC50 is 4400 nM.

Question: How did the EC50 turn out when `CN(C(=O)c1cn2c(-c3ccc(-c4nnn[nH]4)cc3)cnc2cn1)c1ccc(C#N)cc1` [Compound 180, N-(4-cyanophenyl)-N-methyl-3-[4-(1H-1,2,3,4-tetrazol-5-yl)phenyl]imidazo[1,2-a]pyrazine-6-carboxamide] was run?
Answer: Its EC50 is 4340 nM.

Question: `CN(C(=O)c1cn2c(-c3ccc(N4CCCC4)cc3)cnc2cn1)c1ccc(C#N)cc1` [Compound 181, N-(4-cyanophenyl)-N-methyl-3-[4-(pyrrolidin-1-yl)phenyl]imidazo[1,2-a]pyrazine-6-carboxamide] was tested. Which EC50 did it give?
Answer: The EC50 was 723 nM.

Question: `CN(C(=O)c1cn2c(-c3ccc(-c4ccn[nH]4)cc3)cnc2cn1)c1ccc(C#N)cn1` [Compound 182, N-(5-cyanopyridin-2-yl)-N-methyl-3-[4-(1H-pyrazol-5-yl)phenyl]imidazo[1,2-a]pyrazine-6-carboxamide] was tested. Which EC50 did it give?
Answer: The EC50 was 2260 nM.

Question: `CN(C(=O)c1cn2c(-c3ccc(C(F)(F)F)cc3)cnc2cn1)c1cccc(Br)c1` [Compound 183, N-(3-bromophenyl)-N-methyl-3-[4-(trifluoromethyl)phenyl]imidazo[1,2-a]pyrazine-6-carboxamide] was tested. Which EC50 did it give?
Answer: Its EC50 is 2400 nM.

Question: How did the EC50 turn out when `CN(C(=O)c1cn2c(-c3cncc(S(N)(=O)=O)c3)cnc2cn1)c1ccc(C#N)cc1` [Compound 184, N-(4-cyanophenyl)-N-methyl-3-(5-sulfamoylpyridin-3-yl)imidazo[1,2-a]pyrazine-6-carboxamide] was run?
Answer: The EC50 was greater than 10000 nM.

Question: `CON(C)C(=O)c1ccc(-c2cnc3cnc(C(=O)N(C)c4ccc(C#N)cc4)cn23)cc1` [Compound 185, N-(4-cyanophenyl)-3-{4-[methoxy(methyl)carbamoyl]phenyl}-N-methylimidazo[1,2-a]pyrazine-6-carboxamide] was tested. Which EC50 did it give?
Answer: The EC50 was 7170 nM.

Question: How did the EC50 turn out when `CN(C(=O)c1cn2c(-c3ccc(CN)cc3)cnc2cn1)c1ccc(C#N)cc1` [Compound 186, 3-[4-(aminomethyl)phenyl]-N-(4-cyanophenyl)-N-methylimidazo[1,2-a]pyrazine-6-carboxamide] was run?
Answer: Its EC50 is 9170 nM.

Question: With `CN(C(=O)c1cn2c(-c3ccc(C(F)(F)F)nc3)cnc2cn1)c1ccc(C#N)cc1` [Compound 187, N-(4-cyanophenyl)-N-methyl-3-[6-(trifluoromethyl)pyridin-3-yl]imidazo[1,2-a]pyrazine-6-carboxamide] as the molecule, how does the EC50 read?
Answer: The EC50 was 1380 nM.

Question: With `CCN(CC)C(=O)c1ccc(-c2cnc3cnc(C(=O)N(C)c4ccc(C#N)cc4)cn23)cc1` [Compound 188, N-(4-cyanophenyl)-3-[4-(diethylcarbamoyl)phenyl]-N-methylimidazo[1,2-a]pyrazine-6-carboxamide] as the molecule, how does the EC50 read?
Answer: The EC50 was greater than 10000 nM.

Question: Which EC50 does the source give for `CN(C(=O)c1cn2c(-c3cnn(C)c3)cnc2cn1)c1ccc(C#N)cc1` [Compound 189, N-(4-cyanophenyl)-N-methyl-3-(1-methyl-1H-pyrazol-4-yl)imidazo[1,2-a]pyrazine-6-carboxamide] here?
Answer: The EC50 was 7890 nM.

Question: For `Cc1cccc(CN(C)C(=O)c2cn3c(-c4ccc(C(F)(F)F)cc4)cnc3cn2)n1` [Compound 190, N-methyl-N-[(6-methylpyridin-2-yl)methyl]-3-[4-(trifluoromethyl)phenyl]imidazo[1,2-a]pyrazine-6-carboxamide], which EC50 is on record?
Answer: The EC50 was 6240 nM.

Question: How did the EC50 turn out when `CN(C(=O)c1cn2c(-c3cccc(C#N)c3)cnc2cn1)c1ccc(C#N)cc1` [Compound 191, 3-(3-cyanophenyl)-N-(4-cyanophenyl)-N-methylimidazo[1,2-a]pyrazine-6-carboxamide] was run?
Answer: Its EC50 is 7730 nM.

Question: For `CN(Cc1ccc(F)cc1)C(=O)c1cn2c(-c3ccc(C(F)(F)F)cc3)cnc2cn1` [Compound 192, N-[(4-fluorophenyl)methyl]-N-methyl-3-[4-(trifluoromethyl)phenyl]imidazo[1,2-a]pyrazine-6-carboxamide], which EC50 is on record?
Answer: Its EC50 is 7390 nM.

Question: For `CN(C(=O)c1cn2c(-c3ccc(C4CCCN4)cc3)cnc2cn1)c1ccc(C#N)cc1` (stereo not drawn) [Compound 193, N-(4-cyanophenyl)-N-methyl-3-[4-(pyrrolidin-2-yl)phenyl]imidazo[1,2-a]pyrazine-6-carboxamide], which EC50 is on record?
Answer: Its EC50 is 8590 nM.

Question: With `CN(Cc1cccnc1)C(=O)c1cn2c(-c3ccc(C(F)(F)F)cc3)cnc2cn1` [Compound 194, N-methyl-N-(pyridin-3-ylmethyl)-3-[4-(trifluoromethyl)phenyl]imidazo[1,2-a]pyrazine-6-carboxamide] as the molecule, how does the EC50 read?
Answer: The EC50 was 6950 nM.

Question: How did the EC50 turn out when `CN(C(=O)c1cn2c(-c3cccnc3)cnc2cn1)c1ccc(C#N)cc1` [Compound 195, N-(4-cyanophenyl)-N-methyl-3-(pyridin-3-yl)imidazo[1,2-a]pyrazine-6-carboxamide] was run?
Answer: The EC50 was greater than 10000 nM.
